From patent publication US20210238136A1, “AZETIDINE DERIVATIVE, AND PRODRUG THEREOF” (DAIICHI SANKYO COMPANY, LIMITED, priority 2018, published 2021)

What was measured:
mouse acute GVHD model = test: Mouse acute GVHD model, IFN-γ concentration in plasma; assay type: in vivo, mouse (BDF1 host, C57BL/6N donor); conditions: oral, twice daily from Day 0, plasma on Day 7, significant relative to the Vehicle group
Experimental: FIG. 2 is a graph showing the effect of the compound of Example 89 in mouse acute GVHD models. The compound of Example 89 was orally administered at 1.5, 5, 15, or 50 mg/kg, BID. The vertical axis is the concentration of interferon gamma (sometimes abbreviated herein as IFN-γ or IFN-g) in blood on day 7 after elicitation in the model.
Effect of Test Substance in Mouse Acute GVHD Model
A mouse acute graft-versus-host disease (GVHD) model was generated in accordance with a previous report (Puliaev R et al. Differential requirement for IFN-gamma in CTL maturation in acute murine graft-versus-host disease. J Immunol. 173, 910-9 (2004)). Splenocytes were prepared from euthanized donor mice (C57BL/6N), suspended in PBS without hemolysis of erythrocytes, and administered to host mice, BDF1 mice, from the tail vein (the number of transfer cells was adjusted to be 7 to 8×10^7 cells/0.2 mL/mouse in every test, and matched between individuals within the same test). In the Normal group, 0.2 mL of PBS was administered in place of the cells. The test substance was crushed in an agate mortar, and then suspended in a 0.5% hydroxypropyl cellulose (HPC) solution to prepare a dosage solution. In the Vehicle group, 0.5% HPC was used as a dosage solution. To the host mice, the dosage solution was forcibly orally administered (0.2 mL/mouse) twice daily with a feeding needle from the morning of Day 0 (cell transfer) to the end of the experiment. The tail vein was cut without anesthesia on Day 7 and a small amount of blood was collected with a hematocrit tube (EDTA). Plasma was collected by centrifugation and IFN-γ concentration in plasma was measured with an αLISA kit (Mouse IFN-γ alphaLISA, PerkinElimer, AL501C). […] For the difference between the Normal group and the Vehicle group, comparison between two groups was performed by Student's t-test. The difference between the Vehicle group and the test substance administration group was analyzed by a parametric multiple-comparison test, Dunnett test.

NZB/W F1 mice = test: Survival of NZB/W F1 mice that naturally develop SLE-like symptoms and nephritis; assay type: in vivo, mouse (NZB/W F1); conditions: oral from the age of 12 weeks; Example 44 at 30, 100 mg/kg BID; MMF 60 mg/kg QD; Vehicle survival rate 35%
Experimental: FIG. 4 is a graph showing the effect of the compound of Example 44 in NZB/W F1 mice that naturally develop SLE-like symptoms and nephritis. To NZB/W F1 mice, the compound of Example 44 was orally administered at 30, 100 mg/kg, BID, and MMF was orally administered at 60 mg/kg, QD, starting at the age of 12 weeks. The vertical axis indicates the survival rate and the horizontal axis indicates the period. Both of the Vehicle group and the compound of Example 44 administration group was at N=20, and the MMF administration group was at N=15. The surviving days was analyzed by the Kaplan-Meier method, and the group in which the p-value was 0.001 or less compared to the Vehicle group by the log rank test is shown by ***.
Effect of Compound of Example 44 in NZB/W F1 Mice that Naturally Develop SLE-Like Symptoms and Nephritis
To NZB/W F1 mice that naturally develop SLE-like symptoms and nephritis, test substance was forcibly orally administered (0.2 mL/mouse) twice daily with a feeding needle, starting at the age of 12 weeks. The compound of Example 44 was orally administered at 30, 100 mg/kg, BID, and MMF was orally administered at 60 mg/kg, QD. […] Mice were observed daily, and those that reached a dying state such as weight loss and dyspnea were euthanized, and the survival rate was evaluated. The number of survival days was analyzed by the Kaplan-Meier method and the log rank test was performed. […]

[1] = Pharmacokinetic test of prodrug compounds in mouse; assay type: in vivo, females, non-fasting); conditions: female, C57BL/6J; mouse plasma, IV 1 mg/kg of the active compound; read-out: AUClast after IV administration
Experimental: For prodrug compounds, the compounds of Examples 44, 103, and 104 (active compound of these is the compound of Example 41) and the compounds of Examples 89, 94, and 97 (active compound of these is the compound of Example 42), the plasma concentrations of the active compounds after oral administration to mice were measured, and various PK parameters were calculated. The method was as follows:
To C57BL/6J mice (females, non-fasting), the Example compounds were administered and blood sampling was performed under the following conditions.
Intravenous (IV): 1 mg/kg (n=2, 10% HP-β-CD dissolved in Saline/DMSO=95/5, v/v) Oral (PO): 10 mg/kg (n=2, 0.5% HPC dissolved in water)
After blood sampling, plasma was obtained by centrifugation, and to 10 μL of the obtained plasma, an equal amount of DMSO was added. […] The obtained samples were measured and quantitatively analyzed using MassLynx (version 4.1, Waters Corporation) under the following conditions.
From the plasma concentration measurements of the obtained active compound, the following PK parameters were calculated using Moment (Microsoft Excel).
AUClast: Area under plasma concentration-time curve to the last quantifiable time point Cmax: Maximum plasma concentration

[2] = system: activated T cells (CD4+ T cells from mouse spleen); test: 3H-thymidine uptake in activated T cells; assay type: cell-based, mouse (C57BL/6J); conditions: T-cell; mouse spleen CD4+ T cells activated with Dynabeads Mouse T-Activator CD3/CD28; read-out: IC50 (3H-thymidine uptake, proliferation of activated T cells)
Experimental: Effect of Test Substance on ^3H-Thymidine Uptake in Activated T Cells
The effect of test substance on ^3H-thymidine uptake by activation was evaluated using T cells from mouse spleen. The spleen was removed from euthanized C57BL/6J mice, and finely sliced, then triturated on a cell strainer (40 μm mesh), and cells were collected by centrifugation. The collected splenocytes were treated with Cold lyser containing 0.17 M NH4Cl for 5 minutes to hemolytically remove red blood cells and then washed. The resulting cells were used as the splenocytes. From the splenocytes, CD4+ T cells were isolated using an EasySep Mouse CD4+ T cell isolation kit (STEMCELL Technologies Inc.). The CD4+ T cells were seeded into 96-well round-bottom plates. To the plates, test substance or Vehicle was added, and Dynabeads Mouse T-Activator CD3/CD28 (Thermo Fisher Scientific Inc.) was added, then the cells were cultured at 37° C. under 5% CO2. After 24 hours of culture, ^3H-Thymidine (PerkinElmer Inc.) diluted with medium was added to each well, then the cells were further cultured at 37° C. under 5% CO2 overnight. To measure ^3H-Thymidine uptake into the nuclei of the cells, the cells were collected into filter plates UniFilter-96 GF/B (PerkinElmer Inc.) using a FilterMate Universal Harvester (PerkinElmer Inc.). The filter plates were placed in a dryer and left still for 2 hours or more. Then, scintillation cocktail MicroScint-O (PerkinElmer Inc.) was added to the plates, and radioactivity was measured with TopCount NXT (PerkinElmer Inc.). With the radioactivity of the test substance-free group set as 100% and the radioactivity of the non-activation group as 0%, the relative value (proliferation rate, % of vehicle) of the radioactivity of each well to which test substance was added was calculated. The value of % of vehicle was incorporated into analysis software Prism (Version 5.0, GraphPad Software), the “Nonlinear Regression Log (inhibitor) vs Reaction Variable Inclination” was selected, and then sigmoid fitting with restrictions of Bottom=0 and Top=100 was performed to calculate 50% inhibitory concentration (IC50).

[3] = system: IFN-α production in mouse splenocytes (pDC activation by CpG-ODN D35); test: IFN-α production in mouse splenocytes stimulated with TLR9 ligand CpG-ODN D35; assay type: cell-based, mouse (C57BL/6J); conditions: for IC50: Splenocyte, mouse splenocytes, CpG-ODN D35 1 μM, 24 hours of culture, ELISA; for effect on IFN-α production: test substances added at 1 nM to 300 nM
Experimental: The test substances were added at concentrations of 1 nM to 300 nM.
Effect of Test Substance on IFN-α Production in Mouse Splenocytes
Production of IFN-α by TLR9 ligand CpG-ODN D35 stimulation activating pDC was evaluated. Splenocytes were prepared from euthanized C57BL/6J mice in the same way as Test Example 1. Splenocytes were seeded into 96-well round-bottom plates, and test substance was added, and then the plates were preincubated for 30 minutes. Then, CpG-ODN D35 (final concentration 1 μM) was added, and the cells were cultured at 37° C. under 5% CO2. After 24 hours of culture, the culture supernatant was collected, and the IFN-α concentration in the supernatant was measured with an ELISA kit (Mouse IFN-alpha Platinum ELISA Kit, eBioscience). The relative value of the IFN-α concentration of each well when the IFN-α production of the test substance-free group was set as 100% and the amount of the non-stimulated group as 0% (IFN-α production rate, % of vehicle) was calculated. The relative value of the IFN-α concentration was incorporated into analysis software Prism (Version 5.0, GraphPad Software), the “Nonlinear Regression Log (inhibitor) vs Reaction Variable Inclination” was selected for each compound, and then sigmoid fitting with restrictions of Bottom=0 and Top=100 was performed to create a graph of the concentration reaction curve and calculate 50% inhibitory concentration (IC50).

AUC(0-t) [1] [ng·h/mL] | IC50 [3] [nM] | SMILES | effective dose, suppression of IFN-γ in plasma (mouse acute GVHD model) | survival until the end of the experiment (age of 44 weeks) (NZB/W F1 mice) | IC50 [2] [nM] | effect on IFN-α production [3]
– | – | CC(OC(=O)N[C@@H](Cc1cccc(S(=O)(=O)N2CC(Oc3ccc(F)cc3)(c3ccccc3)C2)c1)C(=O)O)OC(=O)C(C)(C)C (stereo partly drawn) [Example 44, (2S)-3-(3-((3-(4-Fluorophenoxy)-3-phenylazetidin-1-yl)sulfonyl)phenyl)-2-(((1-(pivaloyloxy)ethoxy)carbonyl)amino)propanoic acid] | ≥ 10 mg/kg, BID | no death was observed | – | –
499 | 13 | N[C@@H](Cc1cccc(S(=O)(=O)N2CC(Oc3cccc(F)c3)(c3ccccc3)C2)c1)C(=O)O [Example 42, (S)-2-Amino-3-(3-((3-(3-fluorophenoxy)-3-phenylazetidin-1-yl)sulfonyl)phenyl)propanoic acid] | – | – | 4.1 | concentration-dependent suppression effects
– | – | COc1c(C)c2c(c(O)c1C/C=C(\C)CCC(=O)OCCN1CCOCC1)C(=O)OC2 [MMF, mycophenolate mofetil, reference compound] | – | no death was observed | – | –
728 | 21 | N[C@@H](Cc1cccc(S(=O)(=O)N2CC(Oc3ccc(F)cc3)(c3ccccc3)C2)c1)C(=O)O [Example 41, (S)-2-Amino-3-(3-((3-(4-fluorophenoxy)-3-phenylazetidin-1-yl)sulfonyl)phenyl)propanoic acid] | – | – | 5.1 | concentration-dependent suppression effects
